Activity data for two compounds are collected here from ChEMBL document CHEMBL4699599, “Discovery of a Beetroot Protease Inhibitor to Identify and Classify Plant-Derived Cystine Knot Peptides” (J Nat Prod, 2020).

SMILES strings stand for the structures. Positions of bridges follow the written chain, without caps; N, C: chain ends. Residues, ends and D or L forms follow the SMILES beside them.

In the experiment the target is T1, Serine protease 1 (Bos taurus) (UniProt P00760).
T1 sequence (whole entry): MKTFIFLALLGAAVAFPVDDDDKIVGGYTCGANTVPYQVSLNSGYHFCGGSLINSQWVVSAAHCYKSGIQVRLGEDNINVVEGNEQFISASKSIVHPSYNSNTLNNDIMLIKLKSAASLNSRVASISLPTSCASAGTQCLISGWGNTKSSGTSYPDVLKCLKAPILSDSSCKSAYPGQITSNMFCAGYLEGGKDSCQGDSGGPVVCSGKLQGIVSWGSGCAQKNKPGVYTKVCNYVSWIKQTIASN
The experiment is described as follows: Inhibition of bovine beta-trypsin using BAPNA as substrate assessed as […].

For `CC[C@H](C)[C@@H]1NC(=O)[C@H](CCCNC(=N)N)NC(=O)[C@H](CC(C)C)NC(=O)[C@H](CCCNC(=N)N)NC(=O)[C@@H]2CCCN2C(=O)[C@@H]2CCCN2C(=O)[C@H](Cc2cnc[nH]2)NC(=O)[C@@H]2CCCN2C(=O)[C@H](C(C)C)NC(=O)[C@@H]2CSSC[C@@H]3NC(=O)[C@H]([C@@H](C)CC)NC(=O)[C@H](CCC(N)=O)NC(=O)[C@H](CC(=O)O)NC(=O)[C@H]([C@@H](C)O)NC(=O)[C@H](CCCCN)NC(=O)[C@H](C)NC(=O)[C@@H](NC(=O)[C@H](CCC(=O)O)NC(=O)[C@H](CCC(=O)O)NC(=O)[C@H](CC(=O)O)NC(=O)[C@@H](N)CCC(=O)O)CSSC[C@H](NC(=O)[C@H](CSSC[C@@H](C(=O)N[C@@H](C)C(=O)O)NC(=O)[C@H](C(C)C)NC(=O)[C@H](Cc4ccccc4)NC1=O)NC(=O)[C@H](Cc1ccc(O)cc1)NC(=O)[C@H](CC(N)=O)NC(=O)[C@@H]1CCCN1C(=O)[C@H](C)NC(=O)[C@H](CC(N)=O)NC(=O)[C@@H]1CCCN1C(=O)[C@@H]1CCCN1C3=O)C(=O)N[C@@H](CO)C(=O)NCC(=O)N[C@@H](CO)C(=O)N2` (H-EDEECAKTDQICPPNAPNYCCSGSCVPHPPRLRIFVCA-OH; disulfide 5-21, 12-25, 20-37), the Activity stood at 536 nM.

As to `CC[C@H](C)[C@@H]1NC(=O)[C@H](C)NC(=O)CNC(=O)[C@H](CO)NC(=O)[C@@H]2CCCN2C(=O)[C@H](CO)NC(=O)[C@@H](NC(=O)[C@@H](N)CCCCN)CSSC[C@@H]2NC(=O)[C@@H]3CSSC[C@@H](C(=O)N[C@@H](CCC(N)=O)C(=O)O)NC(=O)[C@H](C(C)C)NC(=O)[C@H](Cc4ccccc4)NC(=O)[C@H]([C@@H](C)CC)NC(=O)[C@H](CCCNC(=N)N)NC(=O)[C@H](CC(C)C)NC(=O)[C@H]([C@@H](C)CC)NC(=O)[C@@H]4CCCN4C(=O)[C@H](Cc4cnc[nH]4)NC(=O)[C@@H]4CCCN4C(=O)[C@H](C(C)C)NC(=O)[C@H](CSSC[C@H](NC1=O)C(=O)N[C@@H](CO)C(=O)NCC(=O)N[C@@H](Cc1ccccc1)C(=O)NCC(=O)N1CCC[C@H]1C(=O)N1CCC[C@H]1C(=O)N[C@@H](CCC(=O)O)C(=O)N[C@@H](CCC(N)=O)C(=O)N3)NC(=O)[C@H](C)NC(=O)CNC(=O)[C@H](CO)NC2=O` (H-KCSPSGAICSGFGPPEQCCSGACVPHPILRIFVCQ-OH; disulfide 2-19, 9-23, 18-34), the Activity amounted to 185 nM.
